Experimental data published in the METLIN SMRT retention time set (Domingo-Almenara et al. 2019).

Assay: gradient 5% acetonitrile 3 min, to 50% in 2 min, to 85% in 15 min, held 3 min, 100 µL/min
Conditions: column: Zorbax Extend-C18 2.1 x 50 mm; eluents: water / acetonitrile, 0.1% formic acid
How it was run: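 Retention time was recorded from adduct peaks, which were picked computationally and each inspected manually. Pure standards ran in mixtures of ~100 molecules on HPLC coupled to a quadrupole time-of-flight mass spectrometer, in positive and negative ionization mode, through a Zorbax Extend-C18 column (2.1 × 50 mm, 1.8 μm) at 100 μL/min. Eluents were water and acetonitrile, each with 0.1% formic acid.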

Row | SMILES | RP-LC retention time [s]
1 | O=C(Nc1nc(-c2ccccc2)cs1)c1ccncc1 | 734
2 | Cc1csc(-c2ccc(N3CCN(C(=O)Cc4ccc(Cl)cc4)CC3)nc2)n1 | 902
3 | COc1ccccc1CNCc1ccc2c(c1)n(C)c(=O)n2C | 591
4 | Cc1ccc(NC(=O)C2CCN(C(=O)C3Sc4ccccc4NC3=O)CC2)cc1F (centres undefined) | 804
5 | CC(C)c1ccc(NC(=O)Cc2csc3nc(-c4ccccc4)cn23)cc1 | 970
6 | COC(=O)c1ccc(C(=O)Nc2nnc(Cc3ccc(C)cc3)o2)cc1 | 768
7 | Cc1nn2c(CNS(=O)(=O)c3ccc(F)c(C)c3)c(-c3ccccc3)nc2s1 | 898
8 | O=c1n(CCOc2ccc(F)cc2)nc2ccc(S(=O)(=O)N3CCCCC3)cn12 | 938
9 | CC1=NS(=O)(=O)N(C)C=C1C(=O)OCc1nc(-c2ccccc2Cl)no1 | 954
10 | O=C(Cn1cc(-c2nc(-c3cccs3)no2)ccc1=O)c1ccc2c(c1)OCO2 | 850
11 | CCN1C(=O)COc2ccc(-c3nc(NC(=O)C4CCCCC4)sc3C)cc21 | 652
12 | COc1cc(C(=O)Nc2cccc(-c3cn4ccsc4n3)c2)c([N+](=O)[O-])cc1OC | 658
13 | CCn1c(=O)c(N2CCN(C(=O)Nc3ccccc3Cl)CC2)nc2ccccc21 | 987
14 | Fc1cccc(Cc2noc(-c3nc(-c4ccccc4)no3)n2)c1 | 1160
15 | COC(=O)c1ccc(C(=O)NCC2CCN(S(C)(=O)=O)CC2)cc1 | 637
16 | OCC1O[C@H](O)C(Cl)C(O)C1O (some centres undefined) | 658
17 | O=C(CCc1c(-c2ccc(F)cc2)nc2ccccn12)N1CCC2(CC1)OCCO2 | 615
18 | CN(C)CCCNc1oc(-c2ccccc2)nc1S(=O)(=O)c1ccc(F)cc1 | 692
19 | CC1=NS(=O)(=O)N(C)C=C1C(=O)OCc1nc(-c2ccc(Cl)cc2)no1 | 1010
20 | COc1ccc(-c2nc3ccc(Cl)cn3c2Nc2ccc3c(c2)OCCO3)cc1 | 750
21 | CC1CCN(S(=O)(=O)c2ccc3nn(Cc4ccccc4Cl)c(=O)n3c2)CC1 | 1040
22 | COc1nn(C)cc1C(=O)NCc1cc(-c2cccs2)on1 | 662

Row | SMILES | RP-LC retention time [s]
23 | Cc1cc(NC2CCCC2)n2nc(-c3ccc(Cl)cc3)c(C)c2n1 | 855
24 | CC(C)CC(NC(=O)c1cccs1)C(=O)Nc1nc2ccccc2[nH]1 (centres undefined) | 703
25 | O=C(NCc1ccccc1)C1=C2CCCN2c2ccc(F)cc2S1(=O)=O | 836
26 | COc1ccc(NC(=O)c2csc(-c3cn(C)c4ncccc34)n2)cc1 | 923
27 | CC(C)(C)C(=O)NC1CCN(C(=O)c2ccccc2)C1 (centres undefined) | 676
28 | COc1ccc(CN2CC[C@@H]3CN(S(C)(=O)=O)[C@@H]3C2)cc1C | 617
29 | Cc1cc(N2CCN(C)CC2)n2nc(CN3CCN(c4cccc(Cl)c4)CC3)nc2n1 | 568
30 | CC(C)Oc1ccc(CNC(=O)C2=Cc3ccccc3OC2)cc1 | 1040
31 | CCCc1c(C(=O)NCC2CCCO2)nnn1-c1ccc(OC)cc1 (centres undefined) | 783
32 | Cc1ccc(C(=O)N2CCN(c3nnc4ccccn34)CC2)cc1F | 647
33 | COc1cccc(C(O)CN2CCN(c3ccccn3)CC2)c1 (centres undefined) | 554
34 | CCCn1ccc2oc(C)c(C(=O)NCc3c(C)cc(C)cc3C)c2c1=O | 1200
35 | CCCNC(=O)CCc1nc2ccccc2n(CC(=O)Nc2ccc(OC)c(OC)c2)c1=O | 1110
36 | Fc1ccc2[nH]c(CN3CCN(c4ccccn4)CC3)cc2c1 | 649
37 | CCOc1cccc(C2CC(c3ccc4c(c3)OCO4)=NC3(CCN(C(C)C)CC3)N2)c1O (centres undefined) | 600
38 | CCN1CCN(C(=O)c2nnc(-c3ccc(S(=O)(=O)N4CCCCC4)cc3)o2)CC1 | 665
39 | O=C(NCc1ccc(Cl)cc1)C1CCN(c2cc(N3CCOCC3)ncn2)CC1 | 663
40 | CCc1ccc(CNC(=O)C2CCN(c3cncnc3N3CCOCC3)CC2)cc1 | 666
41 | O=C(Cn1c(-c2cccs2)nc2ccccc21)NC1CC1 | 596
42 | Cc1ccc(NC(=O)CSc2cc(N3CCCC(C)C3)ncn2)c(C)c1 (centres undefined) | 1100
43 | C#CCOCC1CCN(C(=O)CSCc2ccccc2)CC1 | 850
44 | CCC(=O)N1CCc2cc(-c3ccc(C(=O)N4CCC(C(N)=O)CC4)cc3)ccc21 | 667
